For the experiment, the target named is T1, Human Polymorphonuclear Leukocyte Elastase (Homo sapiens, UniProt P08246).
T1 construct: Crude extract of human polymorphonuclear leukocytes (PMN) containing elastase activity; from tissue; host or cells: human polymorphonuclear leukocytes (crude extract)
T1 sequence (P08246 30-247 limits assumed): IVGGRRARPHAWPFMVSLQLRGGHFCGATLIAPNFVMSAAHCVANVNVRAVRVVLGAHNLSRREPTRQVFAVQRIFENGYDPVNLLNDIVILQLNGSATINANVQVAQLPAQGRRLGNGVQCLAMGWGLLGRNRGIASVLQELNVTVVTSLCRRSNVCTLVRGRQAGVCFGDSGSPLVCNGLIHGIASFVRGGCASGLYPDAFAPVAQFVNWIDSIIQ
Briefly: Inhibition of human PMN elastase via hydrolysis of N-t-Boc-alanyl-alanyl-prolylalanine-p-nitroanilide. The class given is biochemical. Particulars: pH 7.5. As to the method:
Protocol-Enzyme Assays for the Inhibition of Human Polymorphonuclear Leukocyte Elastase Via Hydrolysis of N-t-Boc-alanyl-alanyl-prolylalanine-p-nitroanilide Reagents:
0.05M TES (N-tris[hydroxymethyl]methyl-2-amino-ethanesulfonic acid) Buffer, pH 7.5.
0.2 mM N-t-Boc-alanyl-alanyl-Prolyl-Alanine-p-nitroanilide (Boc-AAPAN).
To prepare substrate, the solid (m.w. 550) was first dissolved in 10.0 ml DMSO. Buffer at pH 7.5 was then added to a final volume of 100 ml.
Crude extract of human polymorphonuclear leukocytes (PMN) containing elastase activity.
Inhibitors (N-carboxyl-thienamycin eesters) to be tested dissolved in DMSO just before use.
To 1.0 ml of 0.2 mM Boc-AAPAN in a cuvette, 0.01-0.1 ml of DMSO with or without inhibitor was added. After mixing, a measurement was taken at 410 mμ to detect any spontaneous hydrolysis due to presence of test compound. 0.05 Milliliters of PMN extract was then added and the ΔOD/min at 410 mμ was measured and recorded. Beckman model 35 spectrophotometer was used.
Results were reported as % inhibition produced by test compound within 2 minutes as represented by the % decrease in ΔOD/min as compared to a control without inhibitor.
The elastase activity in the crude PMN extract may vary from one preparation to another. A control of each new batch is run, and the volume added in the assay procedure is adjusted according to activity.

The structures appear in SMILES notation. Like-named read-outs stand apart in the source and are kept apart here.

As to `CC(O)C1C(=O)N2C(C(=O)OCc3ccc([N+](=O)[O-])cc3)=C(SCC(C)(C)NC(=O)OCc3ccc([N+](=O)[O-])cc3)CC12` (centres unmarked), the inhibition (usually the drop in the measured response relative to a control, in per cent) at 0.5 µg/mL turned out to be 45%; at 5 µg/mL the inhibition was 89%; at 20 µg/mL the inhibition was 100%.

As to `CC(OC(=O)OCc1ccc([N+](=O)[O-])cc1)C1C(=O)N2C(C(=O)OCc3ccc([N+](=O)[O-])cc3)=C(SCCNC(=O)OCc3ccc([N+](=O)[O-])cc3)CC12` (centres unmarked), the inhibition at 10 µg/mL was determined as 29%, 25 µg/mL produced 45% inhibition and the inhibition at 50 µg/mL came to 55%.

`CC(CSC1=C(C(=O)OCc2ccc([N+](=O)[O-])cc2)N2C(=O)C(C(C)O)C2C1)NC(=O)OCc1ccc([N+](=O)[O-])cc1` (centres unmarked) displayed an inhibition at 0.5 µg/mL of 42%, an inhibition at 1 µg/mL of 55%, an inhibition at 2 µg/mL of 77% and an inhibition at 10 µg/mL of 94%. Further, the inhibition at 25 µg/mL stood at 100%.

Take `CC(O)C1C(=O)N2C(C(=O)OCc3ccccc3)=C(SCCNC(=O)OCc3ccccc3)CC12` (centres unmarked) [" benzyl benzyl H H]: the inhibition at 5 µg/mL (conc. 5 μg/ml, measured within 2 minutes, crude PMN extract, Boc-AAPAN substrate, read-out: % Inhibition) was 33%. Besides, the inhibition at 20 µg/mL (conc. 20 μg/ml, measured within 2 minutes, crude PMN extract, Boc-AAPAN substrate, read-out: % Inhibition) stood at 69%. In addition, the inhibition at 50 µg/mL (conc. 50 μg/ml, measured within 2 minutes, crude PMN extract, Boc-AAPAN substrate, read-out: % Inhibition) turned out to be 86%.

On to `O=C(NCCSC1=C(C(=O)OCc2ccc([N+](=O)[O-])cc2)N2C(=O)CC2C1)OCc1ccc([N+](=O)[O-])cc1` (centres unmarked) [H PNB PNB H H], for which the inhibition at 5 µg/mL amounted to 18%, the inhibition at 20 µg/mL is 50% and the inhibition at 50 µg/mL came to 63%.

The values are drawn from patent US4495197A, “N-Carboxyl-thienamycin esters and analogs thereof as anti-inflammatory agents” (Merck & Co., Inc., priority 1982, dated 1985).
